Assay results taken from patent US11117894B2, “Pyridopyrazine compounds and uses thereof” (CITY OF HOPE, priority 2017, dated 2021).

Columns and labels:
DU145 prostate cancer = assay: MTS cell viability assay, DU145 prostate cancer cell line; format: cell-based; conditions: 48 h; for Viability % CTL DU145 prostate: Table 1, screened at 10 μM; for Viability (% CTL) at 10 μM DU145 prostate: Table 2; for IC50: Homo sapiens, DU-145, DU145 prostate cancer, MTS; for Viability % CTL DU145 prostate (10 μM ): Table 4
Procedure: (§1) MTS assays were performed for cell viability. To determine if novel pyridopyrazine derivatives have antitumor activities, compounds were screened at 10 μM final concentration with A2058 melanoma and DU145 prostate cancer cell lines. Compounds #16 and #17 were selected to determine IC50 values against lung cancer cell lines, including A549, DMS273, H69, H513, H2461, DMS114, H358 and H2596. In this assay, cells (5000/well) were seeded in 96-well plates, incubated overnight at 37° C. in 5% CO2, and exposed to 10 μM of compounds or in a dose-dependent manner for 48 h. After 48 h treatment with compounds, MTS dye (20 μL/well) was added to 96-well plates. Viable cell numbers were determined by tetrazolium conversion to its formazan dye. Absorbance was measured at 490 nm using an automated ELISA plate reader. Dimethyl sulfoxide (DMSO) was used as the vehicle control. Each experiment was conducted in triplicate. IC50 values were determined using CalcuSyn software (Biosoft).

A2058 melanoma = assay: MTS cell viability assay, A2058 melanoma cell line; format: cell-based; conditions: 48 h; for Viability % CTL A2058 melanoma: Table 1, screened at 10 μM; for Viability (% CTL) at 10 μM A2058 melanoma: Table 2, 10 μM; for IC50: Homo sapiens, MTS; for Viability % CTL A2058 melanoma (10 μM): Table 4, 10 μM
Procedure: as §1

Cc1nc2nccnc2cc1NC(=O)c1ccccc1 [Compound 06A]
Viability % CTL DU145 prostate (DU145 prostate cancer): 94 % CTL | Viability % CTL A2058 melanoma (A2058 melanoma): 85 % CTL

COc1cc(C(=O)Nc2cc3nccnc3nc2C)cc(OC)c1OC [Compound 07A]
Viability % CTL DU145 prostate (DU145 prostate cancer): 122 % CTL | Viability % CTL A2058 melanoma (A2058 melanoma): 82 % CTL

Cc1nc2nc(Nc3ccccc3)cnc2cc1NC(=O)c1ccccc1 [Compound 8, N-(6-Methyl-3-(phenylamino)pyrido[2,3-b]pyrazin-7-yl)benzamide]
Viability (% CTL) at 10 μM DU145 prostate (DU145 prostate cancer): 90 % CTL | Viability (% CTL) at 10 μM A2058 melanoma (A2058 melanoma): 81 % CTL

Cc1ccc(C(=O)Nc2cc3nccnc3nc2C)cc1 [Compound 08A]
Viability % CTL DU145 prostate (DU145 prostate cancer): 96 % CTL | Viability % CTL A2058 melanoma (A2058 melanoma): 80 % CTL

Cc1ccc(C(=O)Nc2cc3ncc(Nc4ccccc4)nc3nc2C)cc1 [Compound 9, 4-Methyl-N-(6-methyl-3-(phenylamino)pyrido[2,3-b]pyrazin-7-yl)benzamide]
Viability (% CTL) at 10 μM DU145 prostate (DU145 prostate cancer): 82 % CTL | Viability (% CTL) at 10 μM A2058 melanoma (A2058 melanoma): 66 % CTL

Cc1nc2nccnc2cc1NC(=O)c1cccc(C(F)(F)F)c1 [Compound 09A]
Viability % CTL DU145 prostate (DU145 prostate cancer): 103 % CTL | Viability % CTL A2058 melanoma (A2058 melanoma): 74 % CTL

Cc1nc2nc(Nc3ccccc3)cnc2cc1NC(=O)c1ccc([N+](=O)[O-])cc1 [Compound 10, N-(6-Methyl-3-(phenylamino)pyrido[2,3-b]pyrazin-7-yl)-4-nitrobenzamide]
Viability (% CTL) at 10 μM DU145 prostate (DU145 prostate cancer): 97 % CTL | Viability (% CTL) at 10 μM A2058 melanoma (A2058 melanoma): 86 % CTL

Cc1nc2nccnc2cc1NC(=O)c1ccc(Br)cc1F [Compound 10A]
Viability % CTL DU145 prostate (DU145 prostate cancer): 95 % CTL | Viability % CTL A2058 melanoma (A2058 melanoma): 93 % CTL

COc1cc(C(=O)Nc2cc3ncc(Nc4ccccc4)nc3nc2C)cc(OC)c1OC [Compound 11, 3,4,5-Trimethoxy-N-(6-methyl-3-(phenylamino)pyrido[2,3-b]pyrazin-7-yl)benzamide]
Viability (% CTL) at 10 μM DU145 prostate (DU145 prostate cancer): 105 % CTL | Viability (% CTL) at 10 μM A2058 melanoma (A2058 melanoma): 83 % CTL

Cc1nc2nccnc2cc1NC(=O)c1ccc([N+](=O)[O-])cc1 [Compound 11A]
Viability % CTL DU145 prostate (DU145 prostate cancer): 106 % CTL | Viability % CTL A2058 melanoma (A2058 melanoma): 87 % CTL

Cc1nc2nc(Nc3ccccc3)cnc2cc1NC(=O)c1cccc(C(F)(F)F)c1 [Compound 12, N-(6-Methyl-3-(phenylamino)pyrido[2,3-b]pyrazin-7-yl)-3-(trifluoromethyl)benzamide]
Viability % CTL DU145 prostate (DU145 prostate cancer): 93 % CTL | Viability % CTL A2058 melanoma (A2058 melanoma): 69 % CTL

Cc1nc2nccnc2cc1NC(=O)c1ccc(N)cc1 [Compound 12A]
Viability % CTL DU145 prostate (DU145 prostate cancer): 99 % CTL | Viability % CTL A2058 melanoma (A2058 melanoma): 84 % CTL

Cc1nc2nccnc2cc1NC(=O)CN1CCN(C)CC1 [Compound 13A]
Viability % CTL DU145 prostate (DU145 prostate cancer): 86 % CTL | Viability % CTL A2058 melanoma (A2058 melanoma): 94 % CTL

Cc1nc2nc(Nc3ccccc3)cnc2cc1NC(=O)c1ccc(NC(=O)Nc2ccccc2)cc1 [Compound 14, N-(6-Methyl-3-(phenylamino)pyrido[2,3-b]pyrazin-7-yl)-4-(3-phenylureido)benzamide]
Viability (% CTL) at 10 μM DU145 prostate (DU145 prostate cancer): 80 % CTL | Viability (% CTL) at 10 μM A2058 melanoma (A2058 melanoma): 75 % CTL

Cc1nc2nccnc2cc1NC(=O)CN(C)C [Compound 14A]
Viability % CTL DU145 prostate (DU145 prostate cancer): 101 % CTL | Viability % CTL A2058 melanoma (A2058 melanoma): 106 % CTL

Cc1nc2nc(Nc3ccccc3)cnc2cc1NC(=O)Nc1ccccc1 [Compound 15, 1-(6-Methyl-3-(phenylamino)pyrido[2,3-b]pyrazin-7-yl)-3-phenylurea]
Viability (% CTL) at 10 μM DU145 prostate (DU145 prostate cancer): 4 % CTL | Viability (% CTL) at 10 μM A2058 melanoma (A2058 melanoma): 5 % CTL

Cc1nc2nccnc2cc1NC(=O)Nc1ccccc1 [Compound 15A]
Viability % CTL DU145 prostate (DU145 prostate cancer): 104 % CTL | Viability % CTL A2058 melanoma (A2058 melanoma): 73 % CTL

Cc1nc2nc(Sc3ccccc3)cnc2cc1NC(=O)c1cccc(C(F)(F)F)c1 [Compound 15B]
Viability % CTL DU145 prostate (DU145 prostate cancer): 113 % CTL | Viability % CTL A2058 melanoma (A2058 melanoma): 61 % CTL

Cc1nc2nccnc2cc1NC(=O)Nc1ccc(F)c(Cl)c1 [Compound 16A]
Viability % CTL DU145 prostate (DU145 prostate cancer): 99 % CTL | Viability % CTL A2058 melanoma (A2058 melanoma): 96 % CTL

Cc1nc2nc(Sc3ccccc3)cnc2cc1NC(=O)c1ccccc1C(F)(F)F [Compound 16B]
Viability % CTL DU145 prostate (DU145 prostate cancer): 120 % CTL | Viability % CTL A2058 melanoma (A2058 melanoma): 84 % CTL

Cc1nc2nccnc2cc1NC(=O)Nc1cccc(C(F)(F)F)c1 [Compound 17A]
Viability % CTL DU145 prostate (DU145 prostate cancer): 98 % CTL | Viability % CTL A2058 melanoma (A2058 melanoma): 79 % CTL

Cc1nc2nc(Sc3ccccc3)cnc2cc1NC(=O)Nc1cccc(C(F)(F)F)c1 [Compound 17B]
Viability % CTL DU145 prostate (DU145 prostate cancer): 101 % CTL | Viability % CTL A2058 melanoma (A2058 melanoma): 56 % CTL

CSc1ccc(NC(=O)Nc2cc3ncc(Nc4ccccc4)nc3nc2C)cc1 [Compound 18, 1-(6-Methyl-3-(phenylamino)pyrido[2,3-b]pyrazin-7-yl)-3-(4-(methylthio)phenyl)urea]
IC50 (DU145 prostate cancer): 2.4 µM | Viability % CTL DU145 prostate (10 μM ) (DU145 prostate cancer): 6 % CTL | IC50 (A2058 melanoma): 1.3 µM | Viability % CTL A2058 melanoma (10 μM) (A2058 melanoma): 7 % CTL

Cc1nc2nccnc2cc1NC(=S)NCc1ccccc1 [Compound 18A]
Viability % CTL DU145 prostate (DU145 prostate cancer): 89 % CTL | Viability % CTL A2058 melanoma (A2058 melanoma): 74 % CTL

Cc1nc2nc(Sc3ccccc3)cnc2cc1NC(=O)Nc1ccc(F)c(Cl)c1 [Compound 18B]
Viability % CTL DU145 prostate (DU145 prostate cancer): 124 % CTL | Viability % CTL A2058 melanoma (A2058 melanoma): 83 % CTL

Cc1nc2nc(Nc3ccccc3)cnc2cc1NC(=O)Nc1ccc(Cl)cc1Cl [Compound 19, 1-(2,4-Dichlorophenyl)-3-(6-methyl-3-(phenylamino)pyrido[2,3-b]pyrazin-7-yl)urea]
Viability % CTL DU145 prostate (10 μM ) (DU145 prostate cancer): 50 % CTL | Viability % CTL A2058 melanoma (10 μM) (A2058 melanoma): 60 % CTL

Cc1ccc(S(=O)(=O)Nc2cc3nccnc3nc2C)cc1 [Compound 19A]
Viability % CTL DU145 prostate (DU145 prostate cancer): 122 % CTL | Viability % CTL A2058 melanoma (A2058 melanoma): 59 % CTL

CSc1ccc(NC(=O)Nc2cc3ncc(Sc4ccccc4)nc3nc2C)cc1 [Compound 19B]
Viability % CTL DU145 prostate (DU145 prostate cancer): 113 % CTL | Viability % CTL A2058 melanoma (A2058 melanoma): 89 % CTL

Cc1nc2nc(Sc3ccccc3)cnc2cc1NC(=O)Nc1ccc(F)c([N+](=O)[O-])c1 [Compound 20B]
Viability % CTL DU145 prostate (DU145 prostate cancer): 89 % CTL | Viability % CTL A2058 melanoma (A2058 melanoma): 84 % CTL

Cc1nc2nc(Nc3ccccc3)cnc2cc1NC(=O)CN(C)C [Compound 24E]
Viability (% CTL) at 10 μM DU145 prostate (DU145 prostate cancer): 102 % CTL | Viability (% CTL) at 10 μM A2058 melanoma (A2058 melanoma): 84 % CTL

Cc1nc2nc(Nc3ccccc3)cnc2cc1NC(=O)CN1CCN(C)CC1 [Compound 25E]
Viability (% CTL) at 10 μM DU145 prostate (DU145 prostate cancer): 83 % CTL | Viability (% CTL) at 10 μM A2058 melanoma (A2058 melanoma): 85 % CTL

Cc1nc2nc(Nc3ccccc3)cnc2cc1NC(=O)CNc1ccccc1 [Compound 26E]
Viability (% CTL) at 10 μM DU145 prostate (DU145 prostate cancer): 85 % CTL | Viability (% CTL) at 10 μM A2058 melanoma (A2058 melanoma): 93 % CTL

CCN(CC)CCNCC(=O)Nc1cc2ncc(Nc3ccccc3)nc2nc1C [Compound 27E]
Viability (% CTL) at 10 μM DU145 prostate (DU145 prostate cancer): 82 % CTL | Viability (% CTL) at 10 μM A2058 melanoma (A2058 melanoma): 85 % CTL

CCOC(=O)c1ccc(Nc2cnc3cc(NC(=O)Nc4ccc(F)c(Cl)c4)c(C)nc3n2)cc1 [Compound 28, Ethyl 4-((7-(3-(3-chloro-4-fluorophenyl)ureido)-6-methylpyrido[2,3-b]pyrazin-3-yl)amino)benzoate]
IC50 (DU145 prostate cancer): 9.9 µM | Viability % CTL DU145 prostate (10 μM ) (DU145 prostate cancer): 40 % CTL | IC50 (A2058 melanoma): 7.1 µM | Viability % CTL A2058 melanoma (10 μM) (A2058 melanoma): 35 % CTL

CCOC(=O)c1ccc(Nc2cnc3cc(NC(=O)Nc4cccc(C(F)(F)F)c4)c(C)nc3n2)cc1 [Compound 29, Ethyl 4-((6-methyl-7-(3-(3-(trifluoromethyl)phenyl)ureido)pyrido[2,3-b]pyrazin-3-yl)amino)benzoate]
IC50 (DU145 prostate cancer): 12.8 µM | Viability % CTL DU145 prostate (10 μM ) (DU145 prostate cancer): 48 % CTL | IC50 (A2058 melanoma): 6.1 µM | Viability % CTL A2058 melanoma (10 μM) (A2058 melanoma): 37 % CTL

CC(=O)Nc1cccc(Nc2cnc3cc(NC(=O)Nc4ccc(F)c(Cl)c4)c(C)nc3n2)c1 [Compound 30, N-(3-((7-(3-(3-Chloro-4-fluorophenyl)ureido)-6-methylpyrido[2,3-b]pyrazin-3-yl)amino)phenyl)acetamide]
Viability % CTL DU145 prostate (10 μM ) (DU145 prostate cancer): 64 % CTL | Viability % CTL A2058 melanoma (10 μM) (A2058 melanoma): 118 % CTL

CC(=O)Nc1cccc(Nc2cnc3cc(NC(=O)Nc4cccc(C(F)(F)F)c4)c(C)nc3n2)c1 [Compound 31, N-(3-((6-Methyl-7-(3-(3-(trifluoromethyl)phenyl)ureido)pyrido[2,3-b]pyrazin-3-yl)amino)phenyl)acetamide]
Viability % CTL DU145 prostate (10 μM ) (DU145 prostate cancer): 62 % CTL | Viability % CTL A2058 melanoma (10 μM) (A2058 melanoma): 119 % CTL

CC(=O)Nc1ccc(Nc2cnc3cc(NC(=O)Nc4ccc(F)c(Cl)c4)c(C)nc3n2)cc1 [Compound 32, N-(4-((7-(3-(3-Chloro-4-fluorophenyl)ureido)-6-methylpyrido[2,3-b]pyrazin-3-yl)amino)phenyl)acetamide]
Viability % CTL DU145 prostate (10 μM ) (DU145 prostate cancer): 76 % CTL | Viability % CTL A2058 melanoma (10 μM) (A2058 melanoma): 65 % CTL

CC(=O)Nc1ccc(Nc2cnc3cc(NC(=O)Nc4cccc(C(F)(F)F)c4)c(C)nc3n2)cc1 [Compound 33, N-(4-((6-Methyl-7-(3-(3-(trifluoromethyl)phenyl)ureido)pyrido[2,3-b]pyrazin-3-yl)amino)phenyl)acetamide]
Viability % CTL DU145 prostate (10 μM ) (DU145 prostate cancer): 55 % CTL | Viability % CTL A2058 melanoma (10 μM) (A2058 melanoma): 109 % CTL
